One assay concerns the target T1, HPV16 E7 protein (Human papillomavirus type 16, UniProt P03129).
T1 construct: endogenous in cells; host or cells: CaSki cells (HPV16-positive cervical carcinoma)
The class given is cell-based. The following applies: CaSki cells; for % Dad: adjusted degradation, CHX steady state set to 100% degradation. The protocol: For intracellular antibody labeling, 0.5×10^6 cells are washed once with 1 ml ice-cold PBS. Cells are centrifuged at 350×g for 5 minutes at 4° C. and then fixed in 1% paraformaldehyde (1 ml/10^6 cells) for 20 minutes at 4° C. Cells are washed with 1 ml ice-cold PBS and centrifuged at 350×g for 5 minutes at 4° C. To permeabilize cells, 100% ice-cold methanol (1 ml/10^6 cells) is added to the cells and incubated for 20 minutes at 4° C. followed by centrifugation at 350×g for 5 minutes at 4° C. Cells are washed with 1 ml ice-cold PBS, centrifuged at 350×g for 5 minutes at 4° C. and resuspended in 0.1% saponin+2% FBS in PBS (ice-cold). Cells are left for 20-30 minutes at room temperature to reduce the background signal and then centrifuged at 350×g for 5 minutes at 4° C. The primary antibody (mAb_HPV16E7-1 (VS13004); concentration 1 μg/μl) is diluted in 0.1% saponin+2% FBS (dilution 0.25 μg/50 μl of incubation buffer per 1×10^6 cells (5 ng/μl)). Cells are incubated with primary antibody for 30 minutes at room temperature, washed with 0.1% saponin+2% FBS and centrifuged at 350×g for 5 minutes at 4° C. The secondary antibody (FITC conjugated goat anti-mouse IgG1-IgM, BD, cat. #555988) is diluted in 0.1% saponin+2% FBS (dilution 1:50). Cells are incubated with secondary antibody for 30 minutes at room temperature, washed once with 0.1% saponin+2% FBS, once with PBS and centrifuged at 350×g for 5 minutes at 4° C.
Cells are resuspended in 700 μl PBS prior to CF analysis with a Beckman Coulter FC 500 MPL, (excitation laser 488 nm). Data analysis is done using the Beckman Coulter software packages MXP for acquisition and CXP for data analysis which includes MFI calculation. Detection of HPV-E7 protein expression is based on morphology back-gating of FL1 histogram (logarithmic scale) with gating for dot plot FS (Forward Scatter) log/SS (Sideward Scatter) log and gating for histograms SS log.
In order to define the level of E7 protein expression and to study the extent of E7 protein steady state level reduction in E7 expressing cells in the presence of various compounds, FC analysis is implemented using the intracellular antibody labeling procedure for monoclonal antibodies to HPV E7. E7 signal intensities are analyzed from the obtained FL1 histograms at logarithmic scale. The FL1 single histogram graph represents the variation in the mean fluorescence intensity (MFI) channel for cells treated with selected compounds compared to cells not incubated with primary antibodies but incubated with secondary, which allows to test for auto-fluorescence, and non-compound treated cells as controls. Non-primary antibody-stained cells are used to set the acquisition parameters to zero. Decrease of the mean fluorescence intensity channel corresponds to a decrease in the expression of HPV16 E7 protein. Degradation of E7 in cells is calculated as percent (%) reduction in MFI(x-Me) using the following formulas: % Drel=(T−C)/T*100; i) relative degradation: % Dad=(T−C)/(T−CHX)*100; ii) adjusted degradation: • Drel=relative degradation, • Dad=adjusted degradation assuming CHX % Drel=100; • T=MFI of non-treated cells; • C=MFI of compound treated cells; • CH=MFI of cycloheximide (CHX) treated cells;
For comparison within one experiment i) the % relative degradation (Drel) is sufficient, whereas for comparison between two or more experiments ii) the adjusted degradation (Dad) is used and CHX steady state is set to a 100% degradation parameter.
1×10^6 freshly seeded CaSki cells (ATCC CRL-7915), are grown in 10 cm diameter cell culture dishes in RPMI1640, 10% FCS medium at 37° C. 5% CO2 overnight and then incubated in the presence of 10 μM Cycloheximide (CHX) 10 μM OC246 or with vehicle alone for four hours at 37° C. 5% CO2. Following this E7 protein is assessed by cytofluorimetric analysis using intracellular HPV16 E7 antibody labeling. […]

In another assay the test system is SiHa (ATCC HTB-35). As to the kind of experiment: Monolayer SRB assay, SiHa. The class given is cell-based. The following applies: Homo sapiens, 72 hrs, HPV16. The protocol: (§1) Various cell culture cells grown as monolayers are harvested from exponential growing cultures after treatment with various OC compounds at different concentrations. For this depending on the cell line, 10.000 to 30.000 cells were plated in 96-well flat-bottom microtiter plates. After a 24 h recovery period to allow cells to resume exponential growth, supernatants are discarded and 100 μl of culture medium (eight control wells/plate) or culture medium with the test compound are added by a liquid handling robotic system (Microlab® Starlet, Hamilton) and treatment continued for 72 hrs. Compounds are applied at 9 concentrations and eight wells/concentration). At least three independent experiments are performed. For SRB staining, cells are fixed with SRB01 (Tab. 5) for 1 h at 4° C. […] Optical density is assessed using a plate-reader (Sunrise, Tecan©) at 540 nm.
(§2) Concentrations required for half maximal response of the compound for cell growth inhibition (EC50) is calculated by non-linear regression (log[conc. of inhibitor] versus response (% T/C)) using the analysis software GraphPad Prism®, Prism 5 for windows, version 5.01 (GraphPad Software Inc., CA).
(In SRB staining, fixed cells bind dye roughly in proportion to their protein.)

Assay [1] has as its system peripheral blood mononuclear cells (PBMC). As to the kind of experiment: Monolayer SRB assay, PBMC. The class given is cell-based. The procedure: as §1, §2
Assay [2] has as its system cell signaling molecules (4E-BP1, p70 S6 kinase, Akt, PTPN14, p53, PD-L1). The experiment in a line: Western blot of cell signaling molecules in CaSki cells. Background: Immunoblotting shows a protein as a band on a membrane.

The record followed here is patent US12630523B2, “Isoquinoline derivatives for use as antiviral and antitumour agents” (priority 2021, dated 2026).

pEC50: −log10 of the molar value. Where only a bound is given, the exact number is not on record here.

T1 sequence (P03129 whole entry): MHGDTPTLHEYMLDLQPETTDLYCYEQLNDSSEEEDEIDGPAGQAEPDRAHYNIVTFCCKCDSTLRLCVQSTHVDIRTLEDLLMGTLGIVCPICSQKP

On to `CN1CCC(CN2C(=O)c3ccccc3[C@@H](C(=O)Nc3cccc(N4CCN(C)CC4)c3)[C@@H]2c2ccc(C(F)(F)F)cc2)CC1` (racemic) [OC974, (3R,4R)- and (3S,4S)-N-[3-(4-methylpiperazin-1-yl)phenyl]-2-[(1-methylpiperidin-4-yl)methyl]-1-oxo-3-[4-(trifluoromethyl)phenyl]-3,4-dihydroisoquinoline-4-carboxamide], for which the “% Dad” value at HPV16 E7 protein turned out to be 68%.

As usually defined, the pEC50 is the negative decadic logarithm of the EC50, by convention in mol/L. A low value points to a high EC50. In the case of `Cc1ccc(CN2C(=O)c3ccccc3[C@H](C(=O)Nc3cccc(N4CCN(C)CC4)c3)[C@@H]2c2ccc(C(F)(F)F)cc2)cc1` [OC246, N-[3-(4-methylpiperazin-1-yl)phenyl]-2-[(4-methylphenyl)methyl]-1-oxo-3-[4-(trifluoromethyl)phenyl]-1,2,3,4-tetrahydroisoquinoline-4-carboxamide], the “% Drel (relative degradation)” value at HPV16 E7 protein (10 μM, four hours) is reported as 43.79%. Also, the “% Dab (adjusted degradation)” value at HPV16 E7 protein (10 μM, four hours, CHX set to 100) is reported as 55.59%. The “MFI (mean fluorescence intensity) of E7 signal” value on HPV16 E7 protein (10 μM, four hours, vehicle T 8.06) is listed as 4.53. Besides, the “% Dad” value at HPV16 E7 protein is recorded as 56%. For the same molecule, the negative logarithm of the EC50 (pEC50) with SiHa (ATCC HTB-35) is 5.45; in assay [1] it was < 4.00. For the same molecule, the “signaling of phosphor-Akt S473” value in assay [2] (10 μM, 4 hours, CaSki and U2OS cells) was “does not inhibit”.

For the molecule `CN1CCC(CN2C(=O)c3ccccc3[C@H](C(=O)Nc3cccc(N4CCN(C)CC4)c3)[C@H]2c2ccc(C(F)(F)F)cc2)CC1` [VSP035, (3S,4S)-N-[3-(4-methylpiperazin-1-yl)phenyl]-2-[(1-methylpiperidin-4-yl)methyl]-1-oxo-3-[4-(trifluoromethyl)phenyl]-1,2,3,4-tetrahydroisoquinoline-4-carboxamide], the PDL-1 regulation result in assay [2] (CaSki, 4 and 8 hours, dose dependent) is “valid pdl-1 destabilizer”. Further, the “p(S473)Akt, Sting and Irf-3 levels” value in assay [2] (CaSki, 10 μm VSP035 time course) is reported as “do not appear to be influenced”. Further, the “Ptpn14 and p53 levels” value in assay [2] (CaSki, 10 μm, 24 h time point) was “increase in Ptpn14 and p53”. For the same molecule, the “Phosphorylation of 4E-BP1 on Ser65 and the p70S6 kinase on Thr389” value in assay [2] (CaSki, 6 h, order 10 μM VSP035, Torin 1, Torin 2, rapamycin, 5 μM VSP035, CGP 57380) is given as “inhibited or strongly reduced”. For the same molecule, the 4E-BP1 phosphorylation state result in assay [2] (CaSki, 6 h treatment) is recorded as “dose dependent hypophosphorylation of 4E-BP1”.
